# “Also recorded” adds a separate entry of the source.
# Key:
# [1] = test system: RAW264.7 mouse monocyte macrophage cells; experiment: SAR screen in RAW 264.7 cells with FVIII antigen, TGF-β ELISA (Example 5); type: cell-based; settings: free compounds dosed in mM range
# Text: (§1) RAW264.7 mouse monocyte macrophage cells were exposed to an increasing concentration of selected compounds in the presence of human plasma-derived FVIII as a model antigen protein. TNF-α and TGF-β production were monitored.
# All molecules were formulated in RPMI media in aseptic conditions. The pH was adjusted to approximately 7.5 before dosing cells. 1,2-dimyristoyl-sn-glycero-3-phosphocholine (DM PC):PS liposomes were made at 70:30 molar ratio to make “PS” liposomes. The remaining liposomes were made by hydrating a DMPC lipid layer in PBS buffer containing a test compound to give a final molar ratio of 70:30 of DMPC:test compound.
# (§2) RAW 264.7 cells were prepared, cultured, and dosed. Cells were seeded at 4×10^5 cells/well. OPLS, OPLT and L-homocysteic acid (LHA) were dosed at 100, 85, 70, 60, 50, 30, 10, 3, 1, 0.3, 0.1, 0.03 and 0.01 mM, or at 100, 85, 70, 60, 50, 30, 10, 3 and 1 mM, as indicated. O-Benzyl-L-serine (OBLS), S-phenyl-L-cysteine (SPLC), S-benzyl-L-cysteine (SBLC) and OBLT were dosed at 100, 85, 70, 60, 50, 30, 10, 3, 1, 0.3, 0.1, 0.03, 0.01, 0.003 and 0.001 μM. Finally, 100 μl of 40 μg/ml of FVIII as a sample antigen was added to each cell. LPS and free protein were used as positive and baseline controls, respectively. TNF-α and TGF-β ELISA were conducted as per the manufacturer's instructions (R & D Systems).
# TLR9 = experiment: TNF-α production by splenocytes in response to TLR9 ligand ODN CpG; type: cell-based, C57BL/6 mice; settings: for TNF-α mean: 48 hours, OPLT 1.85 μg/ml, dexamethasone 100 μg/ml, rapamycin 625 μg/ml
# Method: (§3) OPLT was dissolved in sterile PBS at 100 μM, and pH was adjusted to approximately 7.5. Splenocytes from naïve C57BL/6 mice were stained with CFSE, prepared, cultured, and dosed. Cells were seeded at 2×10^5 cells/well.
# (§4) To evaluate the effects of OPLT on cytokine production by splenocytes in response to different TLR ligands, splenocytes were incubated with one of the following TLR ligands in triplicate: PGN, LPS, ODN CPG, dsRNA, or ssRNA, as per group assignment. Cells were then treated as follows: • Control: No treatment; • OPLT: Cells were dosed with 1.85 μg/ml; • Dexamethasone: Cells were dosed with 100 μg/ml; • Rapamycin: Cells were dosed with 625 μg/ml. Cells were incubated for 48 hours before collecting the supernatant for TNF-α analysis.
# (§5) The supernatant was collected for TNF-α analysis by ELISA.
# TLR2 = experiment: TNF-α production by splenocytes in response to TLR2 ligand PGN; type: cell-based, C57BL/6 mice; settings: for TNF-α mean: 48 hours, OPLT 1.85 μg/ml, dexamethasone 100 μg/ml, rapamycin 625 μg/ml
# Method: as §3, §4, §5
# TLR3 = experiment: TNF-α production by splenocytes in response to TLR3 ligand poly(I:C); type: cell-based, C57BL/6 mice; settings: for TNF-α mean: 48 hours, OPLT 1.85 μg/ml, dexamethasone 100 μg/ml, rapamycin 625 μg/ml
# Method: as §3, §4, §5
# [2] = test system: RAW264.7 mouse monocyte macrophage cells; experiment: SAR screen in RAW 264.7 cells with FVIII antigen, TNF-α ELISA (Example 5); type: cell-based; settings: free compounds dosed in mM range, FVIII antigen
# Text: as §1
# All molecules were formulated in RPMI media in aseptic conditions. The pH was adjusted to approximately 7.5 before dosing cells. 1,2-dimyristoyl-sn-glycero-3-phosphocholine (DM PC):PS liposomes were made at 70:30 molar ratio to make “PS” liposomes.
# as §2
# FoxP3+/CD4+ T-cell [3] = experiment: Ex vivo flow cytometry of splenocytes for FoxP3+/CD4+ T-cells after FVIII treatment period (Example 1); type: in vivo, mice
# Method: OPLT was dissolved in sterile PBS, and pH was adjusted to approximately 7.5. OPLS, a comparator compound, was dissolved in sterile PBS, and pH was adjusted to approximately 7.5. FVIII in PBS was used as a control. For treatment, FVIII was co-mixed with OPLT, OPLS or diluted in PBS before administration, as per group assignment for each animal. For re-challenge, FVIII was administered alone SC to all animals regardless of group assignment. […] For a head-to-head comparison, 5 mg/injection was selected for OPLT. FVIII was dosed at 1 μg/injection.
# (§6) One week after the last dose in the treatment period, one animal from each group was selected at random for ex vivo analysis of the T-cell population. Spleens were collected and a single-cell suspension was prepared for cellular phenotyping by flow cytometry. Cells were stained and gated for CD4+ T-cells. FoxP3 expression level was evaluated for each animal.
# FoxP3+/CD4+ T-cell [4] = experiment: Ex vivo flow cytometry of splenocytes for FoxP3+/CD4+ T-cells after AAV9 treatment period (Example 3); type: in vivo, mice; settings: SC QW 4 weeks with AAV9; OPLT 5 mg, liposomal OBLT 50 μg OBLT; one animal per group
# Method: OPLT and OBLT were dissolved in sterile PBS, and pH was adjusted to approximately 7.5. Liposomal OBLT was prepared using […]. AAV9 in PBS was used as a control. For treatment, AAV9 was co-mixed with OPLT or liposomal OBLT before administration, as per group assignment for each animal. AAV9 was administered with 5 mg of OPLT SC QW, 50 μg OBLT SC QW as liposomal OBLT or 7.2 μg OBLT PO QD as liposomal OBLT. For all SC groups, AAV9 was dosed at 10^6 particles/injection. For PO groups, AAV9 was dosed at 1.43×10^5 particles/injection.
# Animals were injected with AAV9, AAV9+OPLT, or AAV9+liposomal OBLT SC QW for 4 weeks. Blood samples were collected for anti-AAV9 titer analysis after a one-week washout period from the last dose. For oral tolerance, animals were administered AAV9 or AAV9+liposomal OBLT PO, QD for 4 weeks. AAV9 was also administered SC QW to both groups during the treatment period. Blood samples were collected for anti-AAV9 titer analysis after a one-week washout period from the last dose.
# as §6, with “dose,” for “dose in the treatment period,”, “ex-vivo” for “ex vivo”
smiles,measurement,setting,value
"N[C@@H](Cc1ccc(OP(=O)(O)O)cc1)C(=O)O [OPLT, O-phospho-L-tyrosine]",TGF-β production versus OPLS,[1],mimicked that of OPLS; also recorded: more potent inducers of TGF-β
same,TNF-α mean,TLR9; ODN CpG 0 ng/ml,0 pg/mL
same,TNF-α mean,"TLR9; ODN CpG 1 ng/ml, CTL 0",0 pg/mL
same,TNF-α mean,"TLR9; ODN CpG 10 ng/ml, CTL 338",0 pg/mL
same,TNF-α mean,"TLR9; ODN CpG 100 ng/ml, CTL 1220",1178 pg/mL
same,effect on splenocytes' TNF-α response to the TLR9 ligand ODN CpG (in words),TLR9; high dose of ODN CpG,did not
same,effect on splenocytes' TNF-α response to the TLR9 ligand ODN CpG (in words),"TLR9; mid-dose of ODN CpG, statistically significant",reduced splenocytes' response to mid-dose of the TLR9 ligand ODN CpG
same,TNF-α mean,TLR2; PGN 0 ng/ml,0 pg/mL
same,TNF-α mean,"TLR2; PGN 1 ng/ml, CTL 730",445 pg/mL
same,TNF-α mean,"TLR2; PGN 10 ng/ml, CTL 725",613 pg/mL
same,TNF-α mean,"TLR2; PGN 100 ng/ml, CTL 834",827 pg/mL
same,effect on splenocytes' TNF-α response to the TLR2 ligand PGN (in words),"TLR2; PGN 1, 10, 100 ng/ml, compared to control","statistically significant reduction in TNF-α in the low PGN dose group (1 ng/ml), but not the mid or high PGN dose group"
same,TNF-α mean,TLR3; PolyI:C 0 ng/ml,0 pg/mL
same,TNF-α mean,"TLR3; PolyI:C 1 ng/ml, CTL 0",0 pg/mL
same,TNF-α mean,"TLR3; PolyI:C 10 ng/ml, CTL 109",0 pg/mL
same,TNF-α mean,"TLR3; PolyI:C 100 ng/ml, CTL 162",0 pg/mL
same,effect on splenocytes' TNF-α response to the TLR3 ligand poly(I:C) (in words),TLR3; compared to control at all doses,abrogated splenocytes' response to the TLR3 ligand poly(I:C)
same,TNF-α production (suppression) versus OPLS,[2],suppressed TNF-α production at a lower dose than OPLS; also recorded: more potent inhibitors of TNF-α
same,increase in FoxP3+/CD4+ compared to the FVIII alone group,"FoxP3+/CD4+ T-cell [3]; 5 mg/injection co-mixed with FVIII 1 μg SC QW 4 weeks, splenocytes of one animal per group one week after last dose",188%
same,increase in FoxP3+/CD4+ compared to OPLS+FVIII treatment,FoxP3+/CD4+ T-cell [3]; 5 mg/injection co-mixed with FVIII SC QW 4 weeks,73%
same,FoxP3+/CD4+ T-cell (flow cytometry of splenocytes),"FoxP3+/CD4+ T-cell [3]; 5 mg/injection co-mixed with FVIII SC QW 4 weeks, one animal per group, FVIII alone 2.94",8.47
same,increase in FoxP3+/CD4+ compared to the untreated group,FoxP3+/CD4+ T-cell [4],122%
